Legend:
HIV-1 protease [1] = molecular target: T1, HIV-1 protease (Human immunodeficiency virus type 1 group M subtype B, UniProt P04585); assay: FRET assay of HIV-1 protease inhibitory activity (IC50); format: biochemical; details: for IC50: HIV-1 protease 10.2 nM, 15 min preincubation at 25° C., EDANS/DABCYL substrate for C-protected, HiLyte Fluor 488/QXL 520 substrate for deprotected inhibitors
Method: The HIV-1 protease inhibitory activities of the compounds were determined by a FRET method. HIV-1 protease stock solution was diluted with assay buffer (0.1M sodium acetate, 1.0 M sodium chloride, 1.0 mM EDTA, 1.0 mM DTT, 10% DMSO, and 1.0 mg/mL BSA, pH 4.7). All inhibitors were dissolved in DMSO, and diluted to appropriate concentrations with deionized water such that the maximum conc. of DMSO in the buffer was 8.5%. EDANS/DABCYL-based FRET peptide substrate (Ex/Em=340/490 nm) solution in SensoLyte® 490 HIV Protease Assay Kit (Cat. #71127) and HiLyte Fluor™ 488/QXL™ 520-based FRET peptide substrate (Ex/Em=490/520 nm) solution in SensoLyte® 520 HIV Protease Assay Kit (Cat. #71147) were purchased from Anaspec. We needed to use these two different substrates because the compounds without C-protection (throughout this means protection on the oxygen at the C-terminus, a terminal OH) have weak fluorescence that interferes with that from the EDANS/DABCYL-based FRET peptide substrate (Ex/Em=340/490 nm) so an alternative substrate was used.
For the determination of IC50 values, HIV-1 protease (40 μL, 10.2 nM final concentration) and inhibitors (10 μL) were incubated for 15 min at 25° C. Substrate solutions (50 μL) in the buffer were added into the incubated solution to initiate the reaction. EDANS/DABCYL-based FRET peptide substrate was used for C-protected inhibitors, and HiLyte Fluor™ 488/QXL™ 520-based FRET peptide substrate was used for deprotected inhibitors. The total assay volume was 100 μL. Fluorescence was monitored for 5 min at 30° C. in a fluorescence microplate reader (BioTek) at Ex/Em=340/490 nm for ^tBu-protected inhibitors, and Ex/Em=490/520 nm for deprotected inhibitors. The initial velocities were plotted against log [inhibitor] and a sigmoidal curve was fitted to the data points using Graphpad Prism 5 software to obtain IC50 values.

HIV-1 protease [2] = molecular target: T1, HIV-1 protease; assay: Zhang-Poorman kinetic assay of HIV-1 protease dimerization inhibition; format: biochemical; details: for Ki: calculated from y-intercepts using the Zhang-Poorman equation, HIV-1 protease 0.6 to 5.1 nM
Method: If a compound acts as a dimerization inhibitor, the Zhang-Poorman plot gives a line with a slope similar to that obtained for the uninhibited control but with a different intercept; active-site inhibitors yield different slopes compared with the uninhibited control. For this assay, HIV-1 protease was used at concentrations from 0.6 to 5.1 nM. Substrate solutions were diluted to ¼ solution from the original solution, and then used for the kinetic assay. HIV-1 protease (40 μL) was incubated with or without an inhibitor (10 μL) at the desired concentration for 15 min at 25° C. The diluted substrate solution (50 μL) was added to the incubated solution. Fluorescence was monitored for 15 min at 30° C. in a fluorescence microplate reader (BioTek) at Ex/Em=340/490 nm for C-protected inhibitors, and Ex/Em=490/520 nm for deprotected inhibitors.
Slopes for 1lai-H (8.2±0.6) and 1fla-H (9.3±1.2) compared with uninhibited HIV-1 (9.0±0.6) have different y-intercepts (1lai-H y-intercepts 0.19, 1fla-H y-intercepts 0.73, control y-intercepts 0.013). y-Intercepts of uninhibited HIV-1 have different values between experiments for C-protected and deprotected compounds because the substrates used in the assay are different (see above). The results are consistent with 1-H-1-^tBu (side-chains as indicated above) acting as dimerization inhibitors. We note that it has been reported that inhibition of HIV-1 protease activities by dimerization inhibitors is dependent on the time of pre-incubation with the enzyme and inversely dependent on enzyme concentration; consequently, these factors must be standardized if comparing our data with those from different labs.

GAPDH = GAPDH (Homo sapiens, UniProt P04406); details: rescue from apoptosis in vitro; cited from earlier work
Sequence of GAPDH (P04406 whole entry, species assumed): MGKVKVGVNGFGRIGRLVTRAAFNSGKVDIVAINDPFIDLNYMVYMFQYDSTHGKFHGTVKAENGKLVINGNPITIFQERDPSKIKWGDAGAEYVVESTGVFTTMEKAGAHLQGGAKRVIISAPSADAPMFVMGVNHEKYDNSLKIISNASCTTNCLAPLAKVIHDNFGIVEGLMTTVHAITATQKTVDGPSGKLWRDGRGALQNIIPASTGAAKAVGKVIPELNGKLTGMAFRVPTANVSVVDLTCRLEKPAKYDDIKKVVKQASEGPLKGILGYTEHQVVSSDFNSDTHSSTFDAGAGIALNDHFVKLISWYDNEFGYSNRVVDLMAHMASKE

[3] = FIG. 2A, C-protected compounds, Ex/Em=340/490 nm substrate, control 0.42
[4] = FIG. 2A, C-protected compounds, Ex/Em=340/490 nm substrate, uninhibited HIV-1 9.7±0.7
[5] = FIG. 2B, deprotected compounds, Ex/Em=490/520 nm substrate, control 0.013
[6] = FIG. 2B, deprotected compounds, Ex/Em=490/520 nm substrate, uninhibited HIV-1 9.0±0.6

Structure (SMILES) | IC50 (HIV-1 protease [1]) | Ki (HIV-1 protease [2]) | also measured
CC(C)C[C@H]1C(N2CC[C@H](N3C(=O)C=C(OC(C)(C)C)[C@@H]3C)C2)=CC(=O)N1[C@H]1CCN(C2=CC(=O)N[C@H]2Cc2ccccc2)C1 [1fla-^tBu, (S)-1-((S)-1-((S)-2-benzyl-5-oxo-2,5-dihydro-1H-pyrrol-3-yl)pyrrolidin-3-yl)-4-((S)-3-((S)-3-(tert-butoxy)-2-methyl-5-oxo-2,5-dihydro-1H-pyrrol-1-yl)pyrrolidin-1-yl)-5-isobutyl-1H-pyrrol-2(5H)-one] | 54.9 ± 6 µM | 21 ± 2.1 µM | y-intercept of Zhang-Poorman plot (HIV-1 protease [2]; [3]): 1.4; slope of Zhang-Poorman plot (HIV-1 protease [2]; [4]): 9.5±0.6
CC[C@H](C)[C@H]1C(OC(C)(C)C)=CC(=O)N1[C@H]1CCN(C2=CC(=O)N([C@H]3CCN(C4=CC(=O)N[C@H]4CC(C)C)C3)[C@H]2C)C1 [1lai-^tBu, (S)-4-(tert-butoxy)-5-((S)-sec-butyl)-1-((S)-1-((S)-1-((S)-1-((S)-2-isobutyl-5-oxo-2,5-dihydro-1H-pyrrol-3-yl)pyrrolidin-3-yl)-2-methyl-5-oxo-2,5-dihydro-1H-pyrrol-3-yl)pyrrolidin-3-yl)-1H-pyrrol-2(5H)-one] | 111 ± 18 µM | 19.4 ± 4.1 µM | y-intercept of Zhang-Poorman plot (HIV-1 protease [2]; [3]): 2.6; slope of Zhang-Poorman plot (HIV-1 protease [2]; [4]): 10.4±1.0
CC(C)C[C@H]1C(OC(C)(C)C)=CC(=O)N1[C@H]1CCN(C2=CC(=O)NC2Cc2ccccc2)C1 (stereo partly drawn) [2fl-^tBu, (5S)-1-((3S)-1-(2-benzyl-5-oxo-2,5-dihydro-1H-pyrrol-3-yl)pyrrolidin-3-yl)-4-(tert-butoxy)-5-isobutyl-1H-pyrrol-2(5H)-one] | 516 µM |  | 
CC(C)C[C@@H]1NC(=O)C=C1N1CC[C@H](N2C(=O)C=C(OC(C)(C)C)[C@@H]2C)C1 [2la-^tBu, (5S)-4-(tert-butoxy)-1-((3S)-1-(2-isobutyl-5-oxo-2,5-dihydro-1H-pyrrol-3-yl)pyrrolidin-3-yl)-5-methyl-1H-pyrrol-2(5H)-one] | 176 ± 16 µM |  | 
C#CCN(C)CC1=Cc2ccccc2Oc2ccccc21 [CGP3466] |  |  | rescuing effect relative to deprenyl (GAPDH): 100 ×
CC(C)C[C@H]1C(N2CC[C@H](N3C(=O)CC(=O)[C@@H]3C)C2)=CC(=O)N1[C@H]1CCN(C2=CC(=O)N[C@H]2Cc2ccccc2)C1 [Compound 1fla-H] | 46.5 ± 8 µM | 0.93 ± 0.3 µM | y-intercept of Zhang-Poorman plot (HIV-1 protease [2]; [5]): 0.73; slope of Zhang-Poorman plot (HIV-1 protease [2]; [6]): 9.3±1.2
CC[C@H](C)[C@H]1C(=O)CC(=O)N1[C@H]1CCN(C2=CC(=O)N([C@H]3CCN(C4=CC(=O)N[C@H]4CC(C)C)C3)[C@H]2C)C1 [Compound 1lai-H, (3′S,5S)-5-((S)-sec-butyl)-1′-((S)-1-((S)-1-((S)-2-Isobutyl-5-oxo-2,5-dihydro-1H-pyrrol-3-yl)pyrrolidin-3-yl)-2-methyl-5-oxo-2,5-dihydro-1H-pyrrol-3-yl)-[1,3′-bipyrrolidine]-2,4-dione] | 3.7 ± 0.3 µM | 0.38 ± 0.07 µM | y-intercept of Zhang-Poorman plot (HIV-1 protease [2]; [5]): 0.19; slope of Zhang-Poorman plot (HIV-1 protease [2]; [6]): 8.2±0.6
CC(C)C[C@H]1C(=O)CC(=O)N1[C@H]1CCN(C2=CC(=O)N[C@H]2Cc2ccccc2)C1 [Compound 2fl-H, (3′S,5S)-1′-(2-benzyl-5-oxo-2,5-dihydro-1H-pyrrol-3-yl)-5-isobutyl-[1,3′-bipyrrolidine]-2,4-dione] | 419 µM |  | 
CC(C)C[C@@H]1NC(=O)C=C1N1CC[C@H](N2C(=O)CC(=O)[C@@H]2C)C1 [Compound 2la-H] |  |  | inhibition of HIV-1 protease (HIV-1 protease [1]; FRET assay, result in words): did not show any inhibition
CC[C@H](C)C1C(=O)CC(=O)N1[C@H]1CCN(C2=CC(=O)N[C@H]2CC(C)C)C1 (stereo partly drawn) [Compound 2li-H] | 623 µM |  | 
CC(C)C[C@@H]1NC(=O)C=C1N1CC[C@H](N2C(=O)C=C(NCCOCCOCCNC3=CC(=O)N([C@H]4CCN(C5=CC(=O)N[C@H]5CC(C)C)C4)[C@H]3C)[C@@H]2C)C1 [Compound 13] | 84.4 ± 10 µM |  | inhibition of HIV-1 protease relative to 2la-^tBu (HIV-1 protease [1]; comparison of IC50 values): two times better inhibition
